Laboratory results from patent publication US20100204117A1, “CGRP AS A THERAPEUTIC AGENT” (priority 2008, published 2010).
No end group written: not given here.

Assays:
[1] = system: HIV-1IIIB; assay: HIV-1 antiviral assay in CEM-SS cells (MTS readout); type: cell-based
[2] = system: HCMV strain AD169; assay: HCMV plaque formation assay in MRC-5 cells
[3] = system: spleen cells; assay: Th1/Th2 cytokine profiling assay (Ovalbumin-restimulated spleen cells, CBA kit); type: cell-based, Balb/c mice; details: 10 micrograms per ml; Ovalbumin restimulation; 72 hours
Experimental: The Balb/c mice (originated in 1923, it is a popular strain and is used in many different research disciplines. […] On day 50, spleens of the mice were harvested (3 weeks after last boost with Ovalbumin). […] Thereafter, additional Ovalbumin was added to the cells at 10 micrograms/ml for in vitro restimulation of the cells. 72 hours later, cell supernatants were harvested and assayed using the Becton Dickinson Mouse Th1/Th2 Cytokine CBA Kit. This kit can be used to measure Interleukin-2 (IL-2), Interleukin-4 (IL-4), Interleukin-5 (IL-5), Interferon-γ (IFN-γ), and Tumor Necrosis Factor-α (TNF-α) protein levels in a single sample. The kit performance has been optimized for analysis of physiologically relevant concentrations ([…] levels) of specific cytokine proteins in tissue culture supernatants and serum samples.

[4] = system: Primary Human endothelial cells (HUVEC); assay: Endothelial cell migration assay; type: cell-based; details: 10 micrograms per ml, 22 hours
[5] = system: hepatitis B virus (HBV) ayw strain; assay: HBV assay in HepG2-2.2.15 cells (secreted HBV DNA, TaqMan PCR); type: cell-based; details: 10 micrograms per ml, six days
[6] = system: HUVEC; assay: Endothelial tube formation assay; type: cell-based, human; details: 10 micrograms per ml, 20 hours

Cc1cn([C@H]2C[C@H](N=[N+]=[N-])[C@@H](CO)O2)c(=O)[nH]c1=O [AZT]
antiviral activity of positive control compounds (HIV-1) [1]: expected levels of antiviral activity

Nc1nc(O)c2ncn(COC(CO)CO)c2n1 [Ganciclovir, reference compound]
antiviral activity of positive control compound (HCMV) ([2]; positive control): expected levels of antiviral activity

CC(C)(C)NC(=O)[C@@H]1CN(Cc2cccnc2)CCN1C[C@@H](O)C[C@@H](Cc1ccccc1)C(=O)N[C@H]1c2ccccc2C[C@H]1O [indinavir]
antiviral activity of positive control compounds (HIV-1) [1]: expected levels of antiviral activity

Ala-Cys-Asn-Thr-Ala-Thr-Cys-Val-Thr-His-Arg-Leu-Ala-Gly-Leu-Leu-Ser-Arg-Ser-Gly-Gly-Met-Val-Lys-Ser-Asn-Phe-Val-Pro-Thr-Asn-Val-Gly-Ser-Lys-Ala-Phe-NH2 (ACNTATCVTHRLAGLLSRSGGMVKSNFVPTNVGSKAF-NH2; ends and bridges not checked) [peptide 1, beta Calcitonin Gene-Related Peptide, commercially available known peptide]
IFNγ spleen cells; TH1 response (% of control) [3]: 31.9 % of control
IL-2 spleen cells (% of control) [3]: 104.8 % of control
IL-4 spleen cells; TH2 response (% of control) [3]: 90.3 % of control
IL-5 spleen cells; TH2 response (% of control) [3]: 40.1 % of control
TNF-a spleen cells; TH1 response (% of control) [3]: 84.0 % of control
inhibition of the migration of human endothelial cells [4]: did not inhibit
inhibition of HCMV plaque formation as compared to the virus control experiment ([2]; 10 micrograms per ml, 7-10 days): did not show any inhibition
inhibition of HBV replication as compared to the virus control infection [5]: 19.3%
inhibition of the tube formation of human endothelial cells [6]: 12%
